Source: PMC10899606, “Thwarting resistance: MgrA inhibition with methylophiopogonanone a unveils a new battlefront against S. aureus” (NPJ Biofilms and Microbiomes, 2024)
pIC50: −log10 of the molar value.

Columns and labels:
[1] = target: T1, MgrA (Staphylococcus aureus, UniProt P0C1S0); assay: thermal shift assay (Sypro Orange); type: binding; settings: Tm is lowered by the compound; MgrA to Mo-A 1:10 molar ratio, 10 mM Tris, 150 mM NaCl, pH 7.5
T1 construct: homodimer in nature

[2] = target: T1, MgrA; assay: fluorescence anisotropy, inhibition of MgrA binding to DNA probe; type: biochemical
[3] = target: T1, MgrA; assay: intrinsic fluorescence quenching (ex […] nm), Stern-Volmer, linear regression; type: binding; settings: PBS, MgrA 2 nM; static quenching

T1 sequence (P0C1S0 2-147): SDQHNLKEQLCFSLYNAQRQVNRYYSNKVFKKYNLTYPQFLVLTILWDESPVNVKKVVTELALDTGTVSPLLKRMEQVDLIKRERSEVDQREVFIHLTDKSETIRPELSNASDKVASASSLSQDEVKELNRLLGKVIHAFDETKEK

With `Cc1c(O)c(C)c2c(c1O)C(=O)[C@H](Cc1ccc3c(c1)OCO3)CO2` [methylophiopogonanone A] the “∆Tm (decrease)” value [1] was > 3 °C, the pIC50 [2] was 4.02 and the KA [3] was 62500 L/mol.
